Measurements from patent US20120108501A1, “Protease Inhibitors” (priority 2009, published 2012).

Assay: Pharmacokinetics of released PEGylated protease inhibitor following P.O. administration of prodrugs in rats
Type: in vivo, male Sprague-Dawley rats
Parameters: AUCall Mean: concentration or dose not given beside the values; C24 Mean: unit not given here
Settings: concentration at 24 hours; mPEG6-atazanavir in plasma after PO administration of mPEG6-ATV or of the listed prodrug, rats (n = 4-5)
Description: Pharmacokinetic analysis of protease inhibitors described herein was conducted. To evaluate the pharmacokinetics of PEGylated protease inhibitor conjugates with releasable lipophilic attachments, test compounds were administered to male Sprague-Dawley rats.
At various times following test article administration, serial blood samples were collected from indwelling jugular vein catheters and transferred to micro-tubes containing 7.5 μL of 20% w/v K2EDTA as an anticoagulant. Following processing of the blood samples to plasma (10 minutes at 10000 rpm, Centrifuge Model: Kubota 3500), plasma concentrations of the test article or corresponding PEGylated molecule released from the test article was measured using LC-MS/MS methods. Pharmacokinetic parameters were estimated using noncompartmental methods.

Row | Compound | C24 Mean
1 | CCOCOC(CN(Cc1ccc(-c2ccccn2)cc1)NC(=O)C(NC(=O)OC)C(C)(C)C)C(Cc1ccccc1)NC(=O)C(NC(=O)OCCOCCOCCOCCOCCOCCOC)C(C)(C)C (centres unmarked) [Methyl ethyl ether mPEG6-ATV, mPEG6-Atazanavir Methyl Ethyl Ether] | 0.00

Same assay, conditions: mPEG3-atazanavir in plasma after PO administration of mPEG3-ATV or of the listed prodrug, rats (n = 4-5)

Row | AUCall Mean [ng·h/mL] | Cmax Mean [ng/mL] | MRT last Mean [h] | Tmax* Median [h] | Compound
2 | 16.8 | 1.66 | 7.37 | 1.25 | COCCOCCOCCOC(=O)N[C@H](C(=O)N[C@@H](Cc1ccccc1)[C@H](CN(Cc1ccc(-c2ccccn2)cc1)NC(=O)[C@@H](NC(=O)OC)C(C)(C)C)OP(=O)(O)O)C(C)(C)C [mPEG3-ATV-phosphate, mPEG3-atazanavir phosphate]
3 | 40.1 | 7.42 | 3.00 | 1.25 | CCCCC(=O)OC(CN(Cc1ccc(-c2ccccn2)cc1)NC(=O)C(NC(=O)OC)C(C)(C)C)C(Cc1ccccc1)NC(=O)C(NC(=O)OCCOCCOCCOC)C(C)(C)C (centres unmarked) [C4H9CO-mPEG3-ATV, C4H9CO-mPEG3-atazanavir]

Same assay, conditions: mPEG5-atazanavir in plasma after PO administration of mPEG5-ATV or of the listed prodrug, rats (n = 4-5)

Row | AUCall Mean [ng·h/mL] | Cmax Mean [ng/mL] | MRT last Mean [h] | Tmax Median [h] | Compound
4 | 23.7 | 7.38 | 2.42 | 0.500 | CCCCCC(=O)O[C@@H](CN(Cc1ccc(-c2ccccn2)cc1)NC(=O)[C@@H](NC(=O)OC)C(C)(C)C)[C@H](Cc1ccccc1)NC(=O)[C@@H](NC(=O)OCCOCCOCCOCCOCCOC)C(C)(C)C [C5H11CO-mPE5-ATV, C5H11CO-mPEG5-atazanavir]
5 | 50.3 | 1.86 | 26.7 | 24.0 | mPEG5-atazanavir-ethoxy-CME-Leu-Leu [mPEG5ATV-Ethoxy-CM-Leu-Leu]

Same assay, conditions: mPEG6-atazanavir in plasma after PO administration of mPEG6-ATV or of the listed prodrug, rats (n = 4-5)

Row | Compound | AUCall Mean [ng·h/mL] | Cmax Mean [ng/mL] | MRT last Mean [h] | Tmax Median [h]
6 | CCOCOC(CN(Cc1ccc(-c2ccccn2)cc1)NC(=O)C(NC(=O)OC)C(C)(C)C)C(Cc1ccccc1)NC(=O)C(NC(=O)OCCOCCOCCOCCOCCOCCOC)C(C)(C)C (centres unmarked) [Methyl ethyl ether mPEG6-ATV, mPEG6-Atazanavir Methyl Ethyl Ether] | 202 | 38.3 | 10.1 | 2.00
7 | COCCOCCOCCOCCOCCOCCOC(=O)NC(C(=O)NC(Cc1ccccc1)C(CN(Cc1ccc(-c2ccccn2)cc1)NC(=O)C(NC(=O)OC)C(C)(C)C)OP(=O)(O)O)C(C)(C)C (centres unmarked) [mPEG6-ATV-phosphate, mPEG6-atazanavir phosphate] | 12.1 | 1.23 | 23.4 | 6.13
8 | COCCOCCOCCOCCOCCOCCOC(=O)NC(C(=O)NC(Cc1ccccc1)C(CN(Cc1ccc(-c2ccccn2)cc1)NC(=O)C(NC(=O)OC)C(C)(C)C)OC(=O)C(CC(C)C)NC(=O)C(N)Cc1ccccc1)C(C)(C)C.Cl (stereo not drawn) [Phe-Leu-mPEG6-ATV, Phe-Leu-mPEG6-Atazanavir Hydrochloride] | 216 | 27.4 | 11.0 | 1.50
9 | COCCOCCOCCOCCOCCOCCOC(=O)N[C@H](C(=O)N[C@@H](Cc1ccccc1)[C@H](CN(Cc1ccc(-c2ccccn2)cc1)NC(=O)[C@@H](NC(=O)OC)C(C)(C)C)OC(=O)CNC(=O)[C@@H](N)Cc1ccccc1)C(C)(C)C.Cl [Phe-Gly-mPEG6-ATV, Phe-Gly-mPEG6-Atazanavir Hydrochloride] | 217 | 8.86 | 26.1 | 24.0

Second part, the compound after the results:

Row | AUCall Mean [ng·h/mL] | Cmax Mean [ng/mL] | MRT last Mean [h] | Tmax Median [h] | Compound
10 | 36.5 | 13.8 | 1.14 | 0.750 | CCCCC(=O)OC(CN(Cc1ccc(-c2ccccn2)cc1)NC(=O)C(NC(=O)OC)C(C)(C)C)C(Cc1ccccc1)NC(=O)C(NC(=O)OCCOCCOCCOCCOCCOCCOC)C(C)(C)C (centres unmarked) [C4H9CO-mPEG6-ATV, C4H9CO-mPEG6-atazanavir]
11 | 13.2 | 1.86 | 8.28 | 2.00 | CCC(=O)O[C@@H](CN(Cc1ccc(-c2ccccn2)cc1)NC(=O)[C@@H](NC(=O)OC)C(C)(C)C)[C@H](Cc1ccccc1)NC(=O)[C@@H](NC(=O)OCCOCCOCCOCCOCCOCCOC)C(C)(C)C [C2H5CO-mPEG6-ATV, mPEG6-Atazanavir Propionate]
